In patent publication US20260176282A1, “BICYCLIC COMPOUNDS AS CDK INHIBITORS” (BEONE MEDICINES I GMBH, priority 2023, published 2026):
Read-outs that look alike come from different tables or passages of the source.

Tests used:
CDK1/Cyclin B1 [1] = target: T1, CDK1/Cyclin B1 (Homo sapiens, UniProt P06493); experiment: CDK1/Cyclin B1 TR-FRET biochemical assay (0.015 mM ATP); conditions: 120 minutes reaction
Description: (§1) Compounds disclosed herein were tested for inhibition of CDK2/Cyclin E1 or CDK1/Cyclin B1 kinase in an assay based on the time-resolved fluorescence-resonance energy transfer (TR-FRET) methodology. The assay was carried out in 384-well low volume black plates in a reaction mixture containing CDK2/Cyclin E1 or CDK1/Cyclin B1, 0.060 mM ATP for CDK2/Cyclin E1 or 0.015 mM ATP for CDK1/Cyclin B1, 0.15 μM Rb (Ser780)-biotin substrate and 0-10 μM compound in buffer containing 50 mM HEPES pH7.0, 0.02% NaN3, 0.01% BSA, 0.1 mM Orthovanadate, 50 mM MgCl2, 1 mM DTT and 0.005% Tween-20. The kinase was incubated with compound for 60 minutes at room temperature and the reaction was initiated by the addition of ATP and Rb (Ser780)-biotin substrate. After reaction at room temperature for 120 minutes, an equal volume of stop/detection solution was added according to the manufacture's instruction (Cisbio Bioassays). The stop/detection solution contained Streptavidin-XL665 and Anti-pRb (Ser780) mAb-Eu Cryptate in Detection buffer (Cisbio Bioassays). Plates were incubated at room temperature for 60 minutes, and the TR-FRET signals (ex337 nm, em665 nm/620 nm) were recorded on a PHERAstar FSX plate reader (BMG Labtech). The inhibition percentage of CDK2/Cyclin E1 or CDK1/Cyclin B1 kinase activity in presence of increasing concentrations of compounds was calculated based on the ratio of fluorescence at 665 nm to that at 620 nm. The IC50 for each compound was derived from fitting the data to the four-parameter logistic equation by Dotmatics.

CDK2/Cyclin E1 [2] = target: T2, CDK2/Cyclin E1 (Homo sapiens, UniProt P24941); experiment: CDK2/Cyclin E1 TR-FRET biochemical assay (0.060 mM ATP); conditions: 120 minutes reaction
Description: as §1

HEK-293 cells = experiment: HEK-293 cell cytotoxicity detection (CellTiter-Glo); type: cell-based; conditions: incubation of 72 h, CellTiter-Glo luminescence
Description: HEK-293 cells were treated with compounds diluted in 0.4% DMSO, dilution was done according to the following protocol: (1) making 250× stock solution in DMSO from 10 mM by 4-fold dilution, total 8 doses were included; (2) making 2 solution in cell culture medium by transferring 1 μl 250× stock solution into 124 μl medium; (3) adding 50 μl of 2× solution to cells for incubation of 72 h.
25 μl of the CellTiter-Glo® Reagent [(PromegaCat #G9242)] was added to each well in the 96-well plate. The contents were mixed for 2 minutes on an orbital shaker to induce cell lysis. The plate was then allowed to incubate at room temperature for 10 minutes to stabilize luminescent signal. Luminescence was recorded on BMG PheraStar with luminescence protocol.
The IC50 value of a compound can be obtained by fitting the following equation: […]
Wherein, X and Y are known values, and IC50, Hillslope, Top and Bottom are the parameters obtained by fitting with software. Y is the inhibition percentage (calculated from the equation), X is the concentration of the compound; IC50 is the concentration of the compound when the 50% inhibition is reached. The smaller the IC50 value is, the stronger the inhibitory ability of the compound is. Vice versa, the higher the IC50 value is, the weaker the ability the inhibitory ability of the compound is; Hillslope represents the slope of the fitted curve, generally around 1*; Bottom represents the minimum value of the curve obtained by data fitting, which is generally 0%±20%; Top represents the maximum value of the curve obtained by data fitting, which is generally 100%±20%. The experimental data were fitted by calculating and analyzing with Dotmatics data analysis software.

CDK2/Cyclin E1 [3] = target: T2, CDK2/Cyclin E1; experiment: CDK2/Cyclin E1 TR-FRET biochemical assay (1 mM ATP); conditions: 90 minutes reaction
Description: as §1, with “1” for “0.060”, “and” for “or 0.015 mM ATP for”, “90” for “120”

CDK1/Cyclin B1 [4] = target: T1, CDK1/Cyclin B1; experiment: CDK1/Cyclin B1 TR-FRET biochemical assay (1 mM ATP); conditions: 90 minutes reaction
Description: as §1, with “1” for “0.060”, “and” for “or 0.015 mM ATP for”, “90” for “120”

T1 sequence (P06493 whole entry): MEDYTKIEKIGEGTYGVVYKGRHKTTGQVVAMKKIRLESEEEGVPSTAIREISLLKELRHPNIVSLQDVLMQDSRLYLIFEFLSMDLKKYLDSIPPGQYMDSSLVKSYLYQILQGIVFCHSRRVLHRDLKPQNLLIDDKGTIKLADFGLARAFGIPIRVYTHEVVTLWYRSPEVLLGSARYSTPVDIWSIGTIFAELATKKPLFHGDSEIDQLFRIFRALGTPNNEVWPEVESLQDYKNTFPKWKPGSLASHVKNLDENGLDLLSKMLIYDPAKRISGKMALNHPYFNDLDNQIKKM
T1 sequence (P14635 whole entry partner): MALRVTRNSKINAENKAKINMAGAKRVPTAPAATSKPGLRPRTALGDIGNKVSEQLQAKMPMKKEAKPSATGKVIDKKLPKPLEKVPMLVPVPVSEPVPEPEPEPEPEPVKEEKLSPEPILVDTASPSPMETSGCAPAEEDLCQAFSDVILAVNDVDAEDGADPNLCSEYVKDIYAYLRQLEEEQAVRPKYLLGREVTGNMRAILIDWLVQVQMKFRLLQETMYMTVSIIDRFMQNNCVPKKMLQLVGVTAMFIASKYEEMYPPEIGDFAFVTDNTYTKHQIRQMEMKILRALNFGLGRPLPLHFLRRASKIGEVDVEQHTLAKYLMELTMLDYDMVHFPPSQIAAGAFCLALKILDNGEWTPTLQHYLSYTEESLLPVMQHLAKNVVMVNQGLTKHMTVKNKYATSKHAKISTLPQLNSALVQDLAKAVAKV

Row | IC50 (CDK1/Cyclin B1 [1]) | IC50 (CDK2/Cyclin E1 [2]) | IC50 (CDK2/Cyclin E1 [3]) | IC50 (CDK1/Cyclin B1 [4]) | SMILES | IC50 (HEK-293 cells; Homo sapiens, HEK293, 72 h) | IC50 (HEK-293 cells; read-out: HEK293 IC50)
1 | 20 nM | 1.1 nM | – | – | CC1(NC(=O)O[C@H]2CC[C@@H](c3cc(Nc4ccc5c(c4F)S(=O)(=O)CC5)n[nH]3)C2)CC1 (relative stereo) [Example 6, cis-3-(3-((7-fluoro-1,1-dioxido-2,3-dihydrobenzo[b]thiophen-6-yl)amino)-1H-pyrazol-5-yl)cyclopentyl (1-methylcyclopropyl)carbamate] | 440 nM | –
2 | – | – | 0.5 nM | 208 nM | CC1(NC(=O)OC2CCC(c3cc(Nc4ccc5c(c4F)CS(=O)(=O)C5)n[nH]3)C2)CCOC1 (single isomer, unassigned) [Example 13c, cis-3-(3-((4-fluoro-2,2-dioxido-1,3-dihydrobenzo[c]thiophen-5-yl)amino)-1H-pyrazol-5-yl)cyclopentyl (3-methyltetrahydrofuran-3-yl)carbamate] | – | 1720 nM
3 | – | – | 0.9 nM | 322 nM | CC1(NC(=O)OC2CCC(c3cc(Nc4ccc5c(c4F)CS(=O)(=O)C5)n[nH]3)C2)CCOC1 (single isomer, unassigned) [Example 13d, cis-3-(3-((4-fluoro-2,2-dioxido-1,3-dihydrobenzo[c]thiophen-5-yl)amino)-1H-pyrazol-5-yl)cyclopentyl (3-methyltetrahydrofuran-3-yl)carbamate] | – | 4210 nM
4 | – | – | 61 nM | 7870 nM | O=C(NC1CCOC1)OC1CCC(c2cc(Nc3ccc4c(c3F)CS(=O)(=O)C4)n[nH]2)C1 (single isomer, unassigned) [Example 24b, cis-3-(3-((4-fluoro-2,2-dioxido-1,3-dihydrobenzo[c]thiophen-5-yl)amino)-1H-pyrazol-5-yl)cyclopentyl (tetrahydrofuran-3-yl)carbamate] | – | > 10000 nM
5 | – | – | 1.8 nM | 768 nM | C[C@]1(O)CC[C@@H](NC(=O)OC2CCC(c3cc(Nc4ccc5c(c4F)CS(=O)(=O)C5)n[nH]3)C2)CC1 (stereo partly drawn) [Example 25, cis-3-(3-((4-fluoro-2,2-dioxido-1,3-dihydrobenzo[c]thiophen-5-yl)amino)-1H-pyrazol-5-yl)cyclopentyl ((1s,4s)-4-hydroxy-4-methylcyclohexyl)carbamate] | 1130 nM | –
6 | – | – | 1.1 nM | 1180 nM | C[C@]1(O)CC[C@H](NC(=O)OC2CCC(c3cc(Nc4ccc5c(c4F)CS(=O)(=O)C5)n[nH]3)C2)CC1 (stereo partly drawn) [Example 34, cis-3-(3-((4-fluoro-2,2-dioxido-1,3-dihydrobenzo[c]thiophen-5-yl)amino)-1H-pyrazol-5-yl)cyclopentyl ((1r,4r)-4-hydroxy-4-methylcyclohexyl)carbamate] | 1430 nM | –

The remaining lines, values behind:

Row | SMILES | IC50 (CDK1/Cyclin B1 [1]) | IC50 (CDK2/Cyclin E1 [2]) | IC50 (CDK2/Cyclin E1 [3]) | IC50 (CDK1/Cyclin B1 [4]) | IC50 (HEK-293 cells; Homo sapiens, HEK293, 72 h) | IC50 (HEK-293 cells; read-out: HEK293 IC50)
7 | CC(C)NC(=O)O[C@H]1CC[C@@H](c2cc(Nc3cc4c(cc3F)S(=O)(=O)CC4)n[nH]2)C1 (relative stereo) [Example 1, cis-3-(3-((6-fluoro-1,1-dioxido-2,3-dihydrobenzo[b]thiophen-5-yl)amino)-1H-pyrazol-5-yl)cyclopentyl isopropylcarbamate] | 1140 nM | 49 nM | – | – | > 10000 nM | –
8 | CCCNC(=O)O[C@H]1CC[C@@H](c2cc(Nc3ccc4c(c3F)S(=O)(=O)CC4)n[nH]2)C1 (relative stereo) [Example 4, cis-3-(3-((7-fluoro-1,1-dioxido-2,3-dihydrobenzo[b]thiophen-6-yl)amino)-1H-pyrazol-5-yl)cyclopentyl propylcarbamate] | 191 nM | 17 nM | – | – | 8590 nM | –
9 | CC1(NC(=O)OC2CCC(c3cc(Nc4ccc5c(c4F)CS(=O)(=O)C5)n[nH]3)C2)COC1 (single isomer, unassigned) [Example 15a, cis-3-(3-((4-fluoro-2,2-dioxido-1,3-dihydrobenzo[c]thiophen-5-yl)amino)-1H-pyrazol-5-yl)cyclopentyl (3-methyloxetan-3-yl)carbamate] | – | – | 1.9 nM | 1090 nM | > 10000 nM | –
10 | CC1(NC(=O)OC2CCC(c3cc(Nc4ccc5c(c4F)CS(=O)(=O)C5)n[nH]3)C2)COC1 (single isomer, unassigned) [Example 15b, cis-3-(3-((4-fluoro-2,2-dioxido-1,3-dihydrobenzo[c]thiophen-5-yl)amino)-1H-pyrazol-5-yl)cyclopentyl (3-methyloxetan-3-yl)carbamate] | – | – | 2 nM | 505 nM | – | 9900 nM
11 | CCNC(=O)OC1CCC(c2cc(Nc3ccc4c(c3F)CS(=O)(=O)C4)n[nH]2)C1 (single isomer, unassigned) [Example 18a, cis-3-(3-((4-fluoro-2,2-dioxido-1,3-dihydrobenzo[c]thiophen-5-yl)amino)-1H-pyrazol-5-yl)cyclopentyl ethylcarbamate] | – | – | 5.2 nM | 1300 nM | – | > 10000 nM
12 | CCNC(=O)OC1CCC(c2cc(Nc3ccc4c(c3F)CS(=O)(=O)C4)n[nH]2)C1 (single isomer, unassigned) [Example 18b, cis-3-(3-((4-fluoro-2,2-dioxido-1,3-dihydrobenzo[c]thiophen-5-yl)amino)-1H-pyrazol-5-yl)cyclopentyl ethylcarbamate] | – | – | 5.2 nM | 555 nM | – | 522 nM
13 | O=C(NC1CCOC1)OC1CCC(c2cc(Nc3ccc4c(c3F)CS(=O)(=O)C4)n[nH]2)C1 (single isomer, unassigned) [Example 24a, cis-3-(3-((4-fluoro-2,2-dioxido-1,3-dihydrobenzo[c]thiophen-5-yl)amino)-1H-pyrazol-5-yl)cyclopentyl (tetrahydrofuran-3-yl)carbamate] | – | – | 17 nM | 4730 nM | > 10000 nM | –
14 | O=C(N[C@H]1CC[C@@H](O)CC1)OC1CCC(c2cc(Nc3ccc4c(c3F)CS(=O)(=O)C4)n[nH]2)C1 (stereo partly drawn) [Example 17, cis-3-(3-((4-fluoro-2,2-dioxido-1,3-dihydrobenzo[c]thiophen-5-yl)amino)-1H-pyrazol-5-yl)cyclopentyl ((1s,4s)-4-hydroxycyclohexyl)carbamate] | – | – | 2.3 nM | 824 nM | 990 nM | –
15 | O=C(N[C@H]1CC[C@H](O)CC1)OC1CCC(c2cc(Nc3ccc4c(c3F)CS(=O)(=O)C4)n[nH]2)C1 (stereo partly drawn) [Example 26, cis-3-(3-((4-fluoro-2,2-dioxido-1,3-dihydrobenzo[c]thiophen-5-yl)amino)-1H-pyrazol-5-yl)cyclopentyl ((1r,4r)-4-hydroxycyclohexyl)carbamate] | – | – | 1.5 nM | 376 nM | 998 nM | –
